In patent publication US20140121235A1, “Method for Treating S6K-Overexpressing Cancers” (Rush University Medical Center, priority 2012, published 2014):

Columns and labels:
[1] = tested on: ribosomal protein S6^S235/S236 phosphorylation; test: Western blot of S6 phosphorylation in A375 cells; type: cell-based; conditions: A375 cells; A77 1726 dose-dependent or 100 μM, rapamycin 20 nM, PPP 1 μM
Description: (§1) A375 cells seeded in a 6-well plate were starved in DMEM medium containing 0.5% FBS for 2 hr and treated with the indicated concentration of A77 1726 or PLX 4720 (1 μM) for another 2 hr (A) or treated with A77 1726 (100 μM) for the indicated time (B & C). Cells were harvested and analyzed for protein phosphorylation by specific antibodies as indicated. Protein loading was monitored by stripping membrane and re-probing with antibodies against non-phosphorylated proteins. […] A375 cells seeded in a 6-well plate were starved in DMEM medium containing 05% FBS for 2 hr and treated with the indicated concentration of A77 1726 in the absence or presence of uridine (200 μM). Phosphorylated and total proteins were analyzed by Western blot as described above.
(§2) A375 cells seeded in 6-well plates were starved in DMEM medium containing 0.5% FBS for 2 hr and then pre-treated with vehicle (0.1% dimethyl sulfoxide), LY294002 (10 μM) (A), PPP (1 μM) (B), or the inhibitors of the MAP kinase pathway (PLX4720, 1 μM; U0126, 10 μM; PD98059, 10 μM) (C) for 1 hr. Cells were then treated with A77 1726 (100 μM) or rapamycin (20 nM) as indicated for 2 hr. Cells were harvested and analyzed for protein phosphorylation by specific antibodies as indicated. Protein loading was monitored by stripping membrane and re-probing with antibodies against non-phosphorylated proteins.
(§3) Cells grown in 6-well plates were harvested and lysed in NP-40 lysis buffer (50 mM Tris-HCI (pH 8.0), 150 mM NaCl, 1% NP-40, 5 mM EDTA, 10 μg/ml aprotinin, 10 μg/ml leupeptin, and 1 mM phenylmethylsulfonyl fluoride). After incubation on ice for 30 min, the cell lysates were prepared by spinning down at 4° C., 15,000 rpm for 15 min. After electrophoresis and transfer to Immobolin membrane, proteins of interest were probed with their specific antibodies, followed by horseradish peroxidase-conjugated goat anti-rabbit IgG and SuperSignal Western Pico enhanced chemiluminoscence substrate (Pierce Chemical Co., Rockford, Ill.).
(§4) The PI-3 and MAP kinase pathways play an important role in cell proliferation, differentiation, and cell cycle progress. Multiple genes in these two pathways are frequently mutated and have a commanding role in driving tumorigenesis and tumor cell proliferation (2; 3). […] Here we tested whether A77 1726 affected the activation of MAP and PI-3 kinase pathways. A375 cells grown in 6-well plates were starved in the media containing 0.5% FBS for 2 hr and then treated with the indicated concentration of A77 1726. […] We next explored the effect of A77 1726 in phosphorylation of the molecules in the PI-3 kinase pathway.

[2] = tested on: AKT^S473 and S6K1^T389 phosphorylation; test: Western blot of PI-3 kinase pathway phosphorylation in A375 cells; type: cell-based; conditions: for effect on AKT^S473 phosphorylation in A77 1726-treated cells: A375 cells, MAP kinase pathway inhibitor plus A77 1726
Description: as §1, §2, §3, §4

[3] = tested on: ERK1/2^T202/Y204 and MEK1/2^S217/S221 phosphorylation; test: Western blot of MAP kinase pathway phosphorylation in A375 cells; type: cell-based; conditions: for block of A77 1726-induced ERK1/2 and MEK1/2 phosphorylation: A375 cells pre-treated with inhibitor 1 hr, then A77 1726 100 μM 2 hr; for effect on ERK1/2 and MEK phosphorylation, inhibitor alone: A375 cells, PLX 4720 1 μM, rapamycin 20 nM, PPP 1 μM
Description: as §1, §2, §3, §4

[4] = tested on: A375 cells; test: Cell cycle analysis (propidium iodine, flow cytometer); type: cell-based; conditions: for effect on cell cycle, inhibitor alone: PLX4720 1 μM, U0126 10 μM, PD98059 10 μM, rapamycin 20 nM, LY294002 10 μM
Description: (A) Ability of uridine to relieve the cell cycle arrest in the S phase. A375 cells grown in 6-well plates were treated with the indicated concentration of A771726 with or without uridine (200 μM) for 24 hr. Cell cycle was analyzed in a flow cytometer as described in Materials and Methods. (B) Effect of the MAP kinase pathway inhibitors on A77 1726-mediated cell cycle arrest in the S phase. A375 cells were treated with A771726 (100 μM) in the absence or presence of 0.1% DMSO, […] (1 μM), U0126 (10 μM), PD98059 (10 for 24 hr. Single cell suspensions were prepared and analyzed for cell cycle in a flow cytometer. (C) Effect of the PI-3 kinase pathway inhibitors and their effect on A77 1726-mediated cell cycle arrest. A375 cells were treated with A77 1726 (100 μM), rapamycin (20 nM), and/or LY294002 (10 μM). After incubation for 24 hr, cells were harvested and analyzed for cell cycle progress.
(§5) Cells were grown in complete RPMI1640 medium with 10% fetal bovine serum in 6-well plates. Upon 60% confluence, the cells were treated with vehicle or with indicated concentrations of A77 1726 or various inhibitors as indicated for 24 hr. Cells were pulsed with 10 μM BrdU for 2 hr. Cells were harvested, denatured with 2N HCl for 5 min at room temperature followed by neutralization with 0.1M borate buffer (pH 8.5). After washing and blocking with normal mouse serum, the cells were stained with an Alexa Fluor 488-conjugated anti-BrdU monoclonal antibody (BD Bioscience), followed by analysis in a flow cytometer. Alexa Fluor 488-conjugated mouse IgG was included as a control. For cell cycle analysis, the cells were harvested and fixed with 2 ml cold 70% ethanol in PBS overnight at 4° C. Fixed cells were then washed 3 times with PBS, treated with RNaseA (100 μg/ml in 0.5 ml PBS). After incubation at room temperature for 30 min, cells were stained with 2.5 μl propidium iodine (10 mg/ml.) and immediately analyzed for DNA content in a flow cytometer.

[5] = tested on: A375 cells; test: BrdU incorporation (DNA replication), flow cytometry; type: cell-based; conditions: for block of A77 1726-induced BrdU incorporation / DNA synthesis: A77 1726 100 μM plus inhibitor; for effect on DNA replication (BrdU labeling), inhibitor alone: PLX4720 1 μM, U0126 10 μM, rapamycin 20 nM, LY294002 10 μM
Description: (A) The effect of uridine to A77 1726-induced DNA synthesis. A375 cells were treated with the indicated concentration of A771726 in the absence or presence of uridine (200 μM) for 22 hr. After pulsing with BrdU (10 µM) for 2 hr, cells were harvested and analyzed for BrdU incorporation by staining with an Alexa Fluor-488-conjugated anti-BrdU monoclonal antibody followed by flow cytometry. (B) Effect of the MAP kinase pathway inhibitors to A77 1726-stimulated BrdU incorporation. A375 cells were treated with A77 1726 (100 μM) in the presence of 0.1% DMSO, PLX4720 (1 μM), U0126 (10 µM), PD98059 (10 μM). After incubation for 22 hr the cells were pulsed with BrdU for 2 hr. Single cell suspensions were stained for BrdU incorporation and analyzed for cell cycle in a flow cytometer as described in (A). (C) Effect of the PI-3 kinase pathway inhibitors and their effect on A77 1726-stimualted BrdU incorpration. A375 cells were treated with A771726 (100 μM), rapamycin (20 nM), and/or […] (10 μM). After incubation for 22 hr, cells were pulsed with BrdU for 2 hr, harvested and analyzed for BrdU labeling in a flow cytometer.
as §5

[6] = tested on: A375 cells; test: Cell proliferation assay (ATP-based Cell-Glo)
Description: A375 cells were seeded in 96-well plates (2000 cells/well) and incubated the indicated concentrations of A77 1726 for 72 hr in the absence or presence of various concentrations PLX4720 (A, C) with or without uridine (200 μM) (B, D). Cell proliferation was analyzed by an ATP-based Cell-Glo assay. One representative of three experiments with similar results was shown. *p<0.01.
A375 cells were grown in complete RPMI 1640 medium supplemented with 10% fetal bovine serum. The cells were seeded in 96-well plates at the density of 2,000/well in the absence or presence of various concentrations of A77 1726, PLX4720, or uridine (200 μM). After incubation for 72 hr, cell proliferation was monitored by using an ATP-based Cell-Glo assay (Promegan, Madison, Wis.) following the manufacturer's instruction.

## COc1cc([C@@H]2c3cc4c(cc3[C@H](O)[C@H]3COC(=O)[C@@H]23)OCO4)cc(OC)c1OC [PPP]
[1]
  effect on S6^S235/S236 phosphorylation: had no effect
[2]; A375 cells pre-treated with LY294002 10 μM or PPP 1 μM
  block of A77 1726- and rapamycin-induced AKT phosphorylation: largely blocked
[3]
  block of A77 1726-induced ERK1/2 and MEK1/2 phosphorylation: abrogated
  effect on ERK1/2 and MEK phosphorylation, inhibitor alone: had no effect

## COc1cccc(-c2cc(=O)c3ccccc3o2)c1N [PD98059]
[2]
  effect on AKT^S473 phosphorylation in A77 1726-treated cells: further increase
[3]
  block of A77 1726-induced ERK1/2 and MEK1/2 phosphorylation: unable to block
[4]; A375 cells, 24 hr
  effect on cell cycle, inhibitor alone: arrest of the cell cycle in G1 phase
[5]
  block of A77 1726-induced BrdU incorporation / DNA synthesis: partially blocked

## O=c1ccn([C@@H]2O[C@H](CO)[C@@H](O)[C@H]2O)c(=O)[nH]1 [Uridine, uridine]
[4]; A375 cells treated with A77 1726 at three concentrations plus uridine
  effect on cell cycle of A77 1726-treated cells: almost normalize cell cycle
[4]; A375 cells, uridine 200 μM, 24 hr
  effect on cell cycle arrest, uridine alone: little effect

## CCCS(=O)(=O)Nc1ccc(F)c(C(=O)c2c[nH]c3ncc(Cl)cc23)c1F [PLX4720]
[2]
  effect on AKT^S473 phosphorylation in A77 1726-treated cells: further increase
[3]
  block of A77 1726-induced ERK1/2 and MEK1/2 phosphorylation: able to block
  effect on ERK1/2 and MEK phosphorylation, inhibitor alone: inhibited
[4]; A375 cells, 24 hr
  effect on cell cycle, inhibitor alone: arrest of the cell cycle in G1 phase
[6]; PLX4720 100 or 500 nM by itself
  effect on A375 cell proliferation: inhibited
[6]; PLX4720 at 1 nM by itself
  effect on A375 cell proliferation: had no effect
[6]; in the absence or presence of uridine
  effect on A375 cell proliferation in combination with A77 1726: additive effect
[5]
  block of A77 1726-induced BrdU incorporation / DNA synthesis: able to block
  effect on DNA replication (BrdU labeling), inhibitor alone: completely block DNA replication

## N#CC(=C(/N)Sc1ccccc1N)/C(C#N)=C(\N)Sc1ccccc1N [U0126]
[2]
  effect on AKT^S473 phosphorylation in A77 1726-treated cells: further increase
[3]
  block of A77 1726-induced ERK1/2 and MEK1/2 phosphorylation: able to block
[4]; A375 cells, 24 hr
  effect on cell cycle, inhibitor alone: arrest of the cell cycle in G1 phase
[5]
  block of A77 1726-induced BrdU incorporation / DNA synthesis: able to block
  effect on DNA replication (BrdU labeling), inhibitor alone: completely block DNA replication

## CNC(=O)c1cc(Oc2ccc(NC(=O)Nc3ccc(Cl)c(C(F)(F)F)c3)cc2)ccn1 [BAY 43-9006]
[2]
  effect on AKT^S473 phosphorylation in A77 1726-treated cells: further increase
[3]
  block of A77 1726-induced ERK1/2 and MEK1/2 phosphorylation: able to block
